{"source": "paper PMC8163063", "about": "(Chemical Science, 2020)", "key": {"Bacillus subtilis": {"test_system": "Bacillus subtilis", "format": "cell-based"}, "Escherichia coli": {"test_system": "Escherichia coli", "format": "cell-based"}}, "data": [{"substance": "tachyplesin I (KWCFRVCYRGICYRRCR; not fully specified; Tachyplesin-1; UniProt P14213 24-40, looked up) [TPI-1]", "values": [{"measurement": "MIC against B. subtilis", "setting": "Bacillus subtilis", "result": 4, "unit": "µg/mL"}, {"measurement": "MIC against E.coli", "setting": "Escherichia coli", "result": 4, "unit": "µg/mL"}]}]}
